Data as given in US20040248223A1, “Reduction of interfering peroxidase activity in peroxidase based detection methods” (IDEXX Laboratories, Inc., priority 2003, published 2004).
Like-named read-outs stand apart in the source and are kept apart here.

How the values were obtained:
[1] = tested on: endogenous canine peroxidase; settings: 100 μmol per liter sodium azide, whole canine blood, 10 minutes
Method: (§1) SLF5 glass fiber discs, 6.4 mm diameter (Whatman, Inc.) were sensitized with 13 μL of 1 mg/mL rabbit anti-heartworm antibody containing 0.7% sodium bicarbonate, 2% sucrose, and 30 μg/mL FDC Blue 1 dye. Heartworm antibody can be produced from heartworm antigen prepared by disrupting a parasitic worm in an aqueous buffer solution, centrifuging to remove insoluble and particulate components, adding of trichloroacetic acid to a concentration of 15% w/v, centrifuging to remove insoluble components, dialyzing against an aqueous buffer solution and lyophilizing. This antigen preparation is used to produce antibodies in mammals using standard methods (see, e.g., Harlow, E. and D. Lane, 1988, “Antibodies: A Laboratory manual”, Cold Spring Harbor Laboratory, Cod Spring Harbor, N.Y., USA, ISBN 0-87969-314-2 pp 92-286).
(§2) The discs were washed with buffer containing, per liter, 25 mmol of 3-(N-morpholino)-2-hydroxypropane sulfonic acid MOPSO, 100 mmol of NaCl, 1 g of Brij® 35 and 1 g of tetrasodium EDTA, pH 7.4. Two 15 μL drops of a mixture of 100 μL of whole canine blood containing 950 eosinophils per μL (normal range: 100-1500 eosinophils per μL), 0.5%-25% v/v of heartworm extract in fetal bovine serum and 25 μL of 100 μg/mL of chicken anti-heartworm HRP-conjugated antibody was added to the glass fiber disc and allowed to incubate for 5 minutes at 23C. The discs were washed with a buffered bland protein solution containing 1% Triton X-100 and transferred to polystyrene microwells.
(§3) A peroxidase substrate containing 100 μmol per liter of sodium azide, was added to the discs and allowed to incubate for 10 minutes, after which time the amount of blue color produced was measured by bichromatic absorbance at 650 nm-562 nm, compensating the background contribution from the glass fiber matrix. Duplicate discs were also processed in an identical manner except these were incubated instead with the peroxidase substrate but lacking in azide.

HRP [2] = target: T1, HRP (Armoracia rusticana, UniProt P00433); settings: for effect on assay sensitivity: both substrates (TMBlue, TMBM); for 50 μM azide (mA) / 100 μM azide (mA) / 500 μM Azide (mA): serum
T1 sequence (P00433 31-338): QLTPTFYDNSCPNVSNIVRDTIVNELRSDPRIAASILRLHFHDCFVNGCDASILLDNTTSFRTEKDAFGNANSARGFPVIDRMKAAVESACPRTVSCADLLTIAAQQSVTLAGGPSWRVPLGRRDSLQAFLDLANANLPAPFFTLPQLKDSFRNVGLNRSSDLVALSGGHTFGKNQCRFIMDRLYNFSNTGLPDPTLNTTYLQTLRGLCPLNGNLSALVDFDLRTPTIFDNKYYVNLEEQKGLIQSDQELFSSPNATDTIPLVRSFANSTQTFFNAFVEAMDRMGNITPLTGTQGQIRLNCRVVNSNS
Method: as §1, §2, §3
The TMBlue® substrate was incubated with the glass fiber discs for 3 minutes and TMBM substrate was incubated for 15 minutes until bichromatic measurement at 650 mn-562 nm.

[3] = even down to pH 3; cited from earlier work
[4] = Method: Above pH 6 the activity of some peroxidase substrates declines. […] Incubation times longer than 30 minutes have not been very useful in peroxidase-based analysis due to substrate evaporation and gradual inactivation of peroxidase by peroxide, which occurs naturally after a limited number of catalytic cycles.
HRP [5] = target: T1, HRP
Method: (§4) Assays were run to determine the selectivity of azide for interference from EPO, MPO and hemoglobin. Activities were measured in solution using a peroxidase substrate consisting of, per liter, 1.4 mmol of TMB, 0.3 mmol of hydrogen peroxide, 20 mmol of sodium chloride, 30 mg of Triton X-100, and 100 g of sucrose. HRP was a conjugate of chicken antibody (used in Example 1). MPO and EPO were essentially homogeneous commercial preparations isolated from human leukocytes. Hemoglobin (Hgb) was obtained as a Triton X-100 lysate of feline erythrocytes.

EPO = EPO (Homo sapiens, UniProt P11678)
Sequence of EPO (P11678 251-715 limits assumed): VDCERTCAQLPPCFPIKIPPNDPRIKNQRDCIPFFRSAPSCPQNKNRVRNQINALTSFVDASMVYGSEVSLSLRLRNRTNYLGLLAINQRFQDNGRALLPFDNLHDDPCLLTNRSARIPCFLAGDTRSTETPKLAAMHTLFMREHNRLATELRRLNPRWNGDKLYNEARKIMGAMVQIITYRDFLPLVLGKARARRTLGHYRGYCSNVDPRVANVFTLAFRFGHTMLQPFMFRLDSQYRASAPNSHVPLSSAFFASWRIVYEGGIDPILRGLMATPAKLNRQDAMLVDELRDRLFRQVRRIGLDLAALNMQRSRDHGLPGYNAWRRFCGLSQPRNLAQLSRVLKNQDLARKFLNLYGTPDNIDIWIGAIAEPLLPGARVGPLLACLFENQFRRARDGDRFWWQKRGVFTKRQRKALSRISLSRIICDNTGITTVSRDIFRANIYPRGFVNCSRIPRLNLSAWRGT
Sequence of EPO (P11678 140-250 limits assumed): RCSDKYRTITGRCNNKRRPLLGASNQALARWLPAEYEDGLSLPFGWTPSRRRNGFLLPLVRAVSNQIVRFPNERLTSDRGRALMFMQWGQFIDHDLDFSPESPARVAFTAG
Method: as §4

MPO = MPO (Homo sapiens, UniProt P05164)
Sequence of MPO (P05164 279-745 limits assumed): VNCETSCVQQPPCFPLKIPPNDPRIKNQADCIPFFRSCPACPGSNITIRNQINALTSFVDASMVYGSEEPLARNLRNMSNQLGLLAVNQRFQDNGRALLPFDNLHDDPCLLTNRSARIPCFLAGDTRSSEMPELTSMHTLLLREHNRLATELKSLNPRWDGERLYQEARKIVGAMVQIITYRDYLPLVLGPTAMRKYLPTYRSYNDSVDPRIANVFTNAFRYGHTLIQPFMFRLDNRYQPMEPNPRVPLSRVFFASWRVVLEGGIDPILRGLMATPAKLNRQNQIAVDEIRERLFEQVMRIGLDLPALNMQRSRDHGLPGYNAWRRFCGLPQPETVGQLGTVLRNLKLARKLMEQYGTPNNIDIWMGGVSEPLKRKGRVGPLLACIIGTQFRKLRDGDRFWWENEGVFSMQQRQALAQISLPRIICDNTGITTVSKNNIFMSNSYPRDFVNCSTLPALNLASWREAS
Sequence of MPO (P05164 165-273 limits assumed): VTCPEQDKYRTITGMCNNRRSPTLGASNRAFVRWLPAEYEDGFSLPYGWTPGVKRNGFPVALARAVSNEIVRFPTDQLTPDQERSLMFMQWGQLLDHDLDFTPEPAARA
Method: as §4

Hemoglobin (Hgb) = Hemoglobin (Hgb) (Felis catus, UniProt P07405+P07412)
Sequence of Hemoglobin (Hgb) (P07405 whole entry): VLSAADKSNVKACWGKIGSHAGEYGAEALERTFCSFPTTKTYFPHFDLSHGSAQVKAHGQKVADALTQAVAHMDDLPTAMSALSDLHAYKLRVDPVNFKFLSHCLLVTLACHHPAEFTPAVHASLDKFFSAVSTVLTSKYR
Sequence of Hemoglobin (Hgb) (P07412 whole entry): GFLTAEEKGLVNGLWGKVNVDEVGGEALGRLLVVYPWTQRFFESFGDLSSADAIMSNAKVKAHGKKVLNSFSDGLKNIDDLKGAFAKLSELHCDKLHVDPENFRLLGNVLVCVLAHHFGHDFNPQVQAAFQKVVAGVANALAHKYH
Method: as §4

[6] = TMBM substrate, 15 minutes, heartworm antigen 0%
[7] = TMBM substrate, 15 minutes, heartworm antigen 5%
[8] = TMBM substrate, 15 minutes, heartworm antigen 10%
[9] = TMBM substrate, 15 minutes, heartworm antigen 25%
[10] = TMBM substrate, 15 minutes, heartworm antigen 50%
[11] = TMBM substrate, 15 minutes, heartworm antigen 100%
[12] = TMBlue substrate, 3 minutes, heartworm antigen 0%
[13] = TMBlue substrate, 3 minutes, heartworm antigen 5%
[14] = TMBlue substrate, 3 minutes, heartworm antigen 10%
[15] = TMBlue substrate, 3 minutes, heartworm antigen 25%
[16] = TMBlue substrate, 3 minutes, heartworm antigen 50%
[17] = TMBlue substrate, 3 minutes, heartworm antigen 100%

Q: With `[N-]=[N+]=[N-].[Na+]` [azide, sodium azide] as the compound, how does the “azide added mA650-562” value ([1]; antigen 0%) read?
A: 118 mA

Q: What about the “azide added mA650-562” value ([1]; antigen 0.5%) of the same compound?
A: 97 mA

Q: What about the “azide added mA650-562” value ([1]; antigen 1%) of the same compound?
A: 123 mA

Q: What about the “azide added mA650-562” value ([1]; antigen 2.5%) of the same compound?
A: 147 mA

Q: What about the “azide added mA650-562” value ([1]; antigen 5%) of the same compound?
A: 149 mA

Q: And the “azide added mA650-562” value ([1]; antigen 10%)?
A: 179 mA

Q: And the “azide added mA650-562” value ([1]; antigen 25%)?
A: 305 mA

Q: What about the “effect on assay sensitivity” value (HRP [2]; 500 μM azide) of the same compound?
A: the decrease in sensitivity is not severe

Q: And the “50 μM azide (mA)” value (HRP [2]; [6])?
A: 46 mA

Q: And the “50 μM azide (mA)” value (HRP [2]; [7])?
A: 138 mA

Q: What about the “50 μM azide (mA)” value (HRP [2]; [8]) of the same compound?
A: 196 mA

Q: What about the “50 μM azide (mA)” value (HRP [2]; [9]) of the same compound?
A: 264 mA

Q: And the “50 μM azide (mA)” value (HRP [2]; [10])?
A: 535 mA

Q: What about the “50 μM azide (mA)” value (HRP [2]; [11]) of the same compound?
A: 776 mA

Q: And the “100 μM azide (mA)” value (HRP [2]; [6])?
A: 73 mA

Q: What about the “100 μM azide (mA)” value (HRP [2]; [7]) of the same compound?
A: 123 mA

Q: What about the “100 μM azide (mA)” value (HRP [2]; [8]) of the same compound?
A: 197 mA

Q: What about the “100 μM azide (mA)” value (HRP [2]; [9]) of the same compound?
A: 324 mA

Q: And the “100 μM azide (mA)” value (HRP [2]; [10])?
A: 511 mA

Q: And the “100 μM azide (mA)” value (HRP [2]; [11])?
A: 800 mA

Q: What about the “500 μM Azide (mA)” value (HRP [2]; TMBM substrate, 15 minutes, 500 μM azide, heartworm antigen 0%) of the same compound?
A: 37 mA

Q: What about the “500 μM Azide (mA)” value (HRP [2]; TMBM substrate, 15 minutes, 500 μM azide, heartworm antigen 5%) of the same compound?
A: 70 mA

Q: And the “500 μM Azide (mA)” value (HRP [2]; TMBM substrate, 15 minutes, 500 μM azide, heartworm antigen 10%)?
A: 112 mA

Q: And the “500 μM Azide (mA)” value (HRP [2]; TMBM substrate, 15 minutes, 500 μM azide, heartworm antigen 25%)?
A: 173 mA

Q: What about the “500 μM Azide (mA)” value (HRP [2]; TMBM substrate, 15 minutes, 500 μM azide, heartworm antigen 50%) of the same compound?
A: 363 mA

Q: What about the “500 μM Azide (mA)” value (HRP [2]; TMBM substrate, 15 minutes, 500 μM azide, heartworm antigen 100%) of the same compound?
A: 491 mA

Q: And the “50 μM azide (mA)” value (HRP [2]; [12])?
A: 22 mA

Q: And the “50 μM azide (mA)” value (HRP [2]; [13])?
A: 64 mA

Q: And the “50 μM azide (mA)” value (HRP [2]; [14])?
A: 119 mA

Q: And the “50 μM azide (mA)” value (HRP [2]; [15])?
A: 270 mA

Q: What about the “50 μM azide (mA)” value (HRP [2]; [16]) of the same compound?
A: 408 mA

Q: And the “50 μM azide (mA)” value (HRP [2]; [17])?
A: 646 mA

Q: And the “100 μM azide (mA)” value (HRP [2]; [12])?
A: 31 mA

Q: And the “100 μM azide (mA)” value (HRP [2]; [13])?
A: 110 mA

Q: What about the “100 μM azide (mA)” value (HRP [2]; [14]) of the same compound?
A: 150 mA

Q: What about the “100 μM azide (mA)” value (HRP [2]; [15]) of the same compound?
A: 395 mA

Q: And the “100 μM azide (mA)” value (HRP [2]; [16])?
A: 628 mA

Q: And the “100 μM azide (mA)” value (HRP [2]; [17])?
A: 1046 mA

Q: And the “500 μM Azide (mA)” value (HRP [2]; TMBlue substrate, 3 minutes, 500 μM azide, heartworm antigen 0%)?
A: 21 mA

Q: And the “500 μM Azide (mA)” value (HRP [2]; TMBlue substrate, 3 minutes, 500 μM azide, heartworm antigen 5%)?
A: 73 mA

Q: And the “500 μM Azide (mA)” value (HRP [2]; TMBlue substrate, 3 minutes, 500 μM azide, heartworm antigen 10%)?
A: 121 mA

Q: And the “500 μM Azide (mA)” value (HRP [2]; TMBlue substrate, 3 minutes, 500 μM azide, heartworm antigen 25%)?
A: 265 mA

Q: And the “500 μM Azide (mA)” value (HRP [2]; TMBlue substrate, 3 minutes, 500 μM azide, heartworm antigen 50%)?
A: 462 mA

Q: And the “500 μM Azide (mA)” value (HRP [2]; TMBlue substrate, 3 minutes, 500 μM azide, heartworm antigen 100%)?
A: 734 mA

Q: What about the “effect on assay sensitivity” value (HRP [2]; up to 100 μM azide) of the same compound?
A: does not produce a significant diminution of assay sensitivity

Q: And the “loss of azide from closed containers” value [3]?
A: no azide is lost

Q: What about the “fraction of azide that evaporates” value ([4]; microwell, 100 μL of 5 mM azide in succinate buffer, below pH 4.5, less than a half hour) of the same compound?
A: One-half to two-thirds

Q: What about the “fraction of azide lost” value ([4]; microwell, 100 μL of 5 mM azide in succinate buffer, pH 5.0) of the same compound?
A: one-third

Q: And the loss of azide ([4]; pH 5.5 and above, over a half hour)?
A: no significant loss

Q: And the “% of control activity (without azide), HRP” value (HRP [5]; 3 μM azide)?
A: 101%

Q: What about the “% of control activity (without azide), HRP” value (HRP [5]; 30 μM azide) of the same compound?
A: 83.5%

Q: And the “% of control activity (without azide), EPO” value (EPO; 3 μM azide)?
A: 13.4%

Q: What about the “% of control activity (without azide), EPO” value (EPO; 30 μM azide) of the same compound?
A: 0.7%

Q: What about the “% of control activity (without azide), MPO” value (MPO; 3 μM azide) of the same compound?
A: 63.1%

Q: What about the “% of control activity (without azide), MPO” value (MPO; 30 μM azide) of the same compound?
A: 15.5%

Q: What about the “% of control activity (without azide), Hgb” value (Hemoglobin (Hgb); 3 μM azide) of the same compound?
A: 99.7%

Q: And the “% of control activity (without azide), Hgb” value (Hemoglobin (Hgb); 30 μM azide)?
A: 26.4%
